From patent publication EP4810052A2, “HCRHR2 SELECTIVE POLYPEPTIDES” (Gubra A/S, priority 2023, dated 2026)
Starred links: 1 amine or outer side, 2 acyl side, 3 side chain; linkers in the order of their positions; H or OH if unused. Non-standard residues stand in square brackets, D forms with d. Residues, ends and D or L forms follow the SMILES beside them. Groups on a side chain read outwards from the residue. *: point of attachment. C20 diacid = O=C(O)CCCCCCCCCCCCCCCCCCC(=O)*; γGlu = O=C(O)[C@H](CCC(=O)[*:2])N[*:1]; NMeI = CC[C@H](C)[C@H](NC)C(=O)O; Nle = CCCC[C@H](N)C(=O)O; AEEA = NCCOCCOCC(=O)O; Aib = CC(C)(N)C(=O)O

Tests used:
hCRHR2a = biological target: T1, hCRHR2a (Homo sapiens, UniProt Q13324); assay: cAMP potency, transiently transfected CHO-K1 cells, hCRHR2a; type: cell-based; settings: transiently transfected CHO-K1, average n=3; read-out: Transient cell system EC50 (nM) hCRHR 2a
T1 construct: DYK (FLAG); host or cells: CHO-K1, transiently transfected
T1 sequence (Q13324 1-411): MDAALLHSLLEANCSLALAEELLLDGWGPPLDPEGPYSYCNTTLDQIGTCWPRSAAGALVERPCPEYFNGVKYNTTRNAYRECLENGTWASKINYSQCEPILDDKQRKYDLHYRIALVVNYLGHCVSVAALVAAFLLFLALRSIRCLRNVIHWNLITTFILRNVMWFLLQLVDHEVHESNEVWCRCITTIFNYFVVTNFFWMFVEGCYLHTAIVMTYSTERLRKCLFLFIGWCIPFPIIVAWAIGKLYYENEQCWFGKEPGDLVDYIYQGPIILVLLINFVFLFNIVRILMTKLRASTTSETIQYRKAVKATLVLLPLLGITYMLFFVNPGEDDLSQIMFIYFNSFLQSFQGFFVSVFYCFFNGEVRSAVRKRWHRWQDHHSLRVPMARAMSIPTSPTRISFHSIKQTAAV

hCRHR1 = biological target: T2, hCRHR1 (Homo sapiens, UniProt P34998); assay: cAMP potency, transiently transfected CHO-K1 cells, hCRHR1; type: cell-based; design: DYK (FLAG); host or cells: CHO-K1, transiently transfected; settings: transiently transfected CHO-K1, average n=3; read-out: Transient cell system EC50 (nM) hCR HR1
T2 sequence (P34998 24-415): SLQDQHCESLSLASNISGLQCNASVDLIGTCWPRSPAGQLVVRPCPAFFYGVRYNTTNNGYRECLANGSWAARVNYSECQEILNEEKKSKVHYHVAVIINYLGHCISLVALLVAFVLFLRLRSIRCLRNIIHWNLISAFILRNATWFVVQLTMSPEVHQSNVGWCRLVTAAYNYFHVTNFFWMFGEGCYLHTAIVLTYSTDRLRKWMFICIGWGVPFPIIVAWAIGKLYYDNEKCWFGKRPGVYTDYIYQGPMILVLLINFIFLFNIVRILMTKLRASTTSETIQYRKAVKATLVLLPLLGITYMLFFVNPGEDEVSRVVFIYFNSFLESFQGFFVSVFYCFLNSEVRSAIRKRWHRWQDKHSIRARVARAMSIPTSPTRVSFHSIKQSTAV

pCRHR1 = assay: cAMP potency, transiently transfected CHO-K1 cells, pCRHR1; type: cell-based, pig; settings: transiently transfected CHO-K1, average n=3; read-out: Transient cell system EC50 (nM) pCRHR 1
Protocol: (§1) Selected peptides were tested for potency on different species (mouse, rat, porcine) using transiently transfected CHO-K1 cells using the general procedure.

pCRHR2 = assay: cAMP potency, transiently transfected CHO-K1 cells, pCRHR2; type: cell-based, pig; settings: transiently transfected CHO-K1, average n=3; read-out: Transient cell system EC50 (nM) pCR HR2
Protocol: as §1

[1] = Size exclusion chromatography for high molecular weight products (HMWP); type: physicochemical; settings: for HMWP formation (SEC analysis) T14-T0 (%): 14 days; for HMWP formation (SEC analysis) T28-T0 (%): 28 days
Protocol: Dissolved samples were incubated for at least 2 h at room temperature on a rocking table. The main peak purity at time zero (T0) was determined using reversed phase chromatography. The samples were incubated at 40°C for 14 days (T14) and 28 days (T28). The samples were analyzed with reversed phase chromatography and size exclusion chromatography.
Size exclusion chromatography (SEC) was used as an analysis for the formation of high molecular weight products (HMWP, covalent dimers, trimers etc.,). SEC analyses was performed on Thermo Dionex Ultimate UHPLC system with UV detection at 215 nm) equipped with a SEC column (Waters BEH 125Å, 1.7 µm, 300mm x 4.6). Analysis was performed by isocratic elution using 60% buffer B (0.1% TFA in 5:95 H2O: acetonitrile) in buffer A (0.1% TFA in 95:5 H2O: acetonitrile) at a column temperature of 60° C over 20 min. Flowrate was 0.3 mL/min.
Chromatograms were integrated as HMWP (all peaks eluting before the main peak), main peak (assuming this is monomeric peptide) and if relevant LMWP (low molecular weight products, all peaks eluting after main peak). The amount of HMWP was reported as area relative to total area in percent.

mCRHR2 = biological target: T3, mCRHR2 (Mus musculus, UniProt Q60748); assay: cAMP potency, transiently transfected CHO-K1 cells, mCRHR2; type: cell-based; settings: transiently transfected CHO-K1, average n=3; read-out: Transient cell system EC50 (nM) mCRH R2
T3 construct: DYK (FLAG); host or cells: CHO-K1, transiently transfected
Protocol: as §1

hCRHR2b = biological target: T4, hCRHR2b (Homo sapiens, UniProt Q13324); assay: cAMP potency, transiently transfected CHO-K1 cells, hCRHR2b; type: cell-based; settings: transiently transfected CHO-K1, average n=3; read-out: Transient cell system EC50 (nM) hCRHR 2b
T4 construct: DYK (FLAG); host or cells: CHO-K1, transiently transfected
T4 sequence (Q13324 1-438 isoform Q13324-2): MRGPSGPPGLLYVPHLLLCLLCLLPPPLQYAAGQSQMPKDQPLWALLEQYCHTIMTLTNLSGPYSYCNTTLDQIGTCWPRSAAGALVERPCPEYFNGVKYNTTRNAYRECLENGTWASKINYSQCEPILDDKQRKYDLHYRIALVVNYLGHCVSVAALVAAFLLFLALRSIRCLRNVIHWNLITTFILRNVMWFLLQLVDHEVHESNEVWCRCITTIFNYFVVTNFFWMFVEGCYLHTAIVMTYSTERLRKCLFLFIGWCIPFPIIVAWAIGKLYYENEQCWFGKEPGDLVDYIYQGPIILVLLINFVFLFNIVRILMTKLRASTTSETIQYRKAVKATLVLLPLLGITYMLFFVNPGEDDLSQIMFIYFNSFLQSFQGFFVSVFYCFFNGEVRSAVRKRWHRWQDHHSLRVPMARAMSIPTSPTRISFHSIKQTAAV

rCRHR2 = biological target: T5, rCRHR2 (Rattus norvegicus, UniProt P47866); assay: cAMP potency, transiently transfected CHO-K1 cells, rCRHR2; type: cell-based; settings: transiently transfected CHO-K1, average n=3; read-out: Transient cell system EC50 (nM) rCRHR 2
T5 construct: DYK (FLAG); host or cells: CHO-K1, transiently transfected
Protocol: as §1

T3 sequence (Q60748 1-431 isoform Q60748-2): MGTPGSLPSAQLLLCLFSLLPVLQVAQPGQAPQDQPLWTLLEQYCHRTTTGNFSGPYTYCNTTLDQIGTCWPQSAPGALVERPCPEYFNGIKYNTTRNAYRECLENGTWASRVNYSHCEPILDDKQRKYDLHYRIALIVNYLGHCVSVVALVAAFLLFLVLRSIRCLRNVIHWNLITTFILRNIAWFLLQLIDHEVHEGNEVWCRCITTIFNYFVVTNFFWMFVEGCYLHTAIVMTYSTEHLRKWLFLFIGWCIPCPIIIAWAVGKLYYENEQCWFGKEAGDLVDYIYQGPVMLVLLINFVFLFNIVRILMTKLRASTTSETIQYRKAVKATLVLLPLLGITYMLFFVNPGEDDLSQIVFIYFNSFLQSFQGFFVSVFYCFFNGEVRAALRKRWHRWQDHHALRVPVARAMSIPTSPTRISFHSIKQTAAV
T5 sequence (P47866 whole entry): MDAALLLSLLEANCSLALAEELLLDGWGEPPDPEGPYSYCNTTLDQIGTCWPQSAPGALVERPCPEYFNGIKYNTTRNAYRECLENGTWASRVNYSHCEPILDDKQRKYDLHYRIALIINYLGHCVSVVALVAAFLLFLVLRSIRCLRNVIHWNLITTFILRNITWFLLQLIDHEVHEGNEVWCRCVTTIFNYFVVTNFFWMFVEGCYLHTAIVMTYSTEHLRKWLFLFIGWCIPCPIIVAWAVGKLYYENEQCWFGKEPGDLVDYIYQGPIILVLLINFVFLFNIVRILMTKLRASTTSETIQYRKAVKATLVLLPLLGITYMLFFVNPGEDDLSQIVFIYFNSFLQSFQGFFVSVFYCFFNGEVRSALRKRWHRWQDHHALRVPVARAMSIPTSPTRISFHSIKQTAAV

Structure (SMILES)	EC50 (hCRHR2a)	EC50 (hCRHR1)	EC50 (pCRHR1)	EC50 (pCRHR2)	HMWP formation (SEC analysis) T14-T0 (%) ([1]; pH 7.0, 40°C)	HMWP formation (SEC analysis) T28-T0 (%) ([1]; pH 7.0, 40°C)	HMWP formation (SEC analysis) T14-T0 (%) ([1]; pH 7.5, 40°C)	HMWP formation (SEC analysis) T28-T0 (%) ([1]; pH 7.5, 40°C)	HMWP formation (SEC analysis) T14-T0 (%) ([1]; pH 8.0, 40°C)	HMWP formation (SEC analysis) T28-T0 (%) ([1]; pH 8.0, 40°C)	EC50 (mCRHR2)	EC50 (hCRHR2b)	EC50 (rCRHR2)
CCCC[C@H](NC(=O)[C@@H](NC(=O)[C@H](CCC(=O)O)NC(=O)[C@H](C)NC(=O)[C@H](CC(N)=O)NC(=O)C(C)(C)NC(=O)[C@H](CCCCNC(=O)COCCOCCNC(=O)COCCOCCNC(=O)CC[C@H](NC(=O)CC[C@H](NC(=O)CCCCCCCCCCCCCCCCCCC(=O)O)C(=O)O)C(=O)O)NC(=O)[C@H](C)NC(=O)[C@H](CCC(N)=O)NC(=O)[C@H](CCC(=O)O)NC(=O)[C@H](CCCNC(=N)N)NC(=O)[C@H](C)NC(=O)[C@H](C)NC(=O)[C@H](CCCNC(=N)N)NC(=O)[C@H](C)NC(=O)[C@H](CCCNC(=N)N)NC(=O)[C@H](C)NC(=O)[C@H](CCC(N)=O)NC(=O)[C@H](CO)NC(=O)[C@H](CC(C)C)NC(=O)[C@H](CC(C)C)NC(=O)[C@@H](NC(=O)[C@H](CCC(N)=O)NC(=O)[C@H](CC(C)C)NC(=O)[C@H](CC(C)C)NC(=O)CNC(=O)[C@@H](NC(=O)[C@@H]1CCCN1C(=O)[C@@H](NC(=O)[C@H](CC(=O)O)NC(=O)[C@H](CC(C)C)NC(=O)[C@H](CO)NC(=O)[C@H](CC(C)C)NC(=O)[C@@H](NC(=O)[C@@H]1CCCN1)C(C)C)C(C)C)[C@@H](C)CC)[C@@H](C)CC)[C@@H](C)CC)C(=O)N[C@@H](C)C(=O)N[C@@H](CCC(=O)O)C(=O)N[C@H](C(N)=O)C(C)C [SEQ ID NO: 238] (H-PVLSLDVPIGLLQILLSQARARAAREQAK([AEEA-AEEA-γGlu-γGlu-C20 diacid])[Aib]NAEI[Nle]AEV-NH2)	0.018 nM	> 5000 nM	> 5000 nM	0.015 nM	0.3%	0.5%	0.4%	0.4%	-0.1%	0.2%	0.0047 nM	0.016 nM	0.067 nM
CC[C@H](C)[C@H](N)C(=O)N[C@H](C(=O)N[C@@H](CC(C)C)C(=O)N[C@@H](CO)C(=O)N[C@@H](CC(C)C)C(=O)N[C@@H](CC(=O)O)C(=O)N[C@H](C(=O)N1CCC[C@H]1C(=O)N[C@H](C(=O)NCC(=O)N[C@@H](CC(C)C)C(=O)N[C@@H](CC(C)C)C(=O)N[C@@H](CCC(N)=O)C(=O)N[C@H](C(=O)N[C@@H](CC(C)C)C(=O)N[C@@H](CC(C)C)C(=O)N[C@@H](CCC(=O)O)C(=O)N[C@@H](CCC(N)=O)C(=O)N[C@@H](C)C(=O)N[C@@H](CCCNC(=N)N)C(=O)N[C@@H](C)C(=O)N[C@@H](CCCNC(=N)N)C(=O)N[C@@H](C)C(=O)N[C@@H](C)C(=O)N[C@@H](CCCNC(=N)N)C(=O)N[C@@H](CCC(=O)O)C(=O)N[C@@H](CCC(N)=O)C(=O)N[C@@H](C)C(=O)N[C@@H](CCCCNC(=O)COCCOCCNC(=O)COCCOCCNC(=O)CC[C@H](NC(=O)CC[C@H](NC(=O)CCCCCCCCCCCCCCCCCCC(=O)O)C(=O)O)C(=O)O)C(=O)N[C@H](C(=O)N[C@@H](CC(N)=O)C(=O)N[C@@H](C)C(=O)N[C@@H](CCC(=O)O)C(=O)N[C@H](C(=O)N[C@@H](CC(C)C)C(=O)N[C@@H](C)C(=O)N[C@@H](CCC(=O)O)C(=O)N[C@H](C(N)=O)C(C)C)[C@@H](C)CC)[C@@H](C)O)[C@@H](C)CC)[C@@H](C)CC)C(C)C)C(C)C [SEQ ID NO: 3] (H-IVLSLDVPIGLLQILLEQARARAAREQAK([AEEA-AEEA-γGlu-γGlu-C20 diacid])TNAEILAEV-NH2)	0.016 nM	> 1000 nM	> 5000 nM	0.027 nM							0.0054 nM	0.0081 nM	0.07 nM
CCCC[C@H](NC(=O)[C@@H](NC(=O)[C@H](CCC(=O)O)NC(=O)C(C)(C)NC(=O)[C@H](CC(N)=O)NC(=O)[C@@H](NC(=O)[C@H](CCCCNC(=O)COCCOCCNC(=O)COCCOCCNC(=O)CC[C@H](NC(=O)CC[C@H](NC(=O)CCCCCCCCCCCCCCCCCCC(=O)O)C(=O)O)C(=O)O)NC(=O)[C@H](C)NC(=O)[C@H](CCC(N)=O)NC(=O)[C@H](CCC(=O)O)NC(=O)[C@H](CCCNC(=N)N)NC(=O)[C@H](C)NC(=O)[C@H](C)NC(=O)[C@H](CCCNC(=N)N)NC(=O)[C@H](C)NC(=O)[C@H](CCCNC(=N)N)NC(=O)[C@H](C)NC(=O)[C@H](CCC(N)=O)NC(=O)[C@H](CO)NC(=O)[C@H](CC(C)C)NC(=O)[C@H](CC(C)C)NC(=O)[C@@H](NC(=O)[C@H](CCC(N)=O)NC(=O)[C@H](CC(C)C)NC(=O)[C@H](CC(C)C)NC(=O)CNC(=O)[C@@H](NC(=O)[C@@H]1CCCN1C(=O)[C@@H](NC(=O)[C@H](CC(=O)O)NC(=O)[C@H](CC(C)C)NC(=O)[C@H](CO)NC(=O)[C@H](CC(C)C)NC(=O)[C@@H](NC(=O)[C@@H](NC)[C@@H](C)CC)C(C)C)C(C)C)[C@@H](C)CC)[C@@H](C)CC)[C@@H](C)O)[C@@H](C)CC)C(=O)N[C@@H](C)C(=O)N[C@@H](CCC(=O)O)C(=O)N[C@H](C(N)=O)C(C)C [SEQ ID NO: 215] (H-[NMeI]VLSLDVPIGLLQILLSQARARAAREQAK([AEEA-AEEA-γGlu-γGlu-C20 diacid])TN[Aib]EI[Nle]AEV-NH2)	0.013 nM		> 1000 nM	0.017 nM	-0.3%	-0.3%	0.1%	0.3%	0.0%	-0.1%	0.004 nM	0.016 nM	0.072 nM
